ChEMBL document CHEMBL4145638 (J Med Chem, 2018)

Legend:
Neuraminidase [1] = target: T1, Neuraminidase (Influenza A virus, UniProt B4URF0); assay: Inhibition of Influenza A virus (A/Paris/2590/2009(H1N1)) neuraminidase activity by fluorometric assay
[2] = target: Neuraminidase (Influenza A virus (A/Memphis/1/1971(H3N2)), UniProt P03471); assay: Inhibition of Influenza A virus (A/Paris/908/97 (H3N2)) neuraminidase activity by fluorometric assay
in vitro [3] = settings: chicken, chicken embryo fibroblasts
Neuraminidase [4] = target: T1, Neuraminidase; set-up: species or system Influenza A virus (A/California/04/2009(H1N1))
Neuraminidase [5] = target: T1, Neuraminidase; set-up: species or system A/Babol/36/2005(H3N2)
in vitro [6] = settings: human, liver
in vitro [7] = settings: human, liver microsomes
in vitro [8] = settings: human, liver microsomes; remark: listed apart in the source
[9] = Drug metabolism in human liver microsomes assessed as (3R,4R,5S)-4-Acetamido-5-((4(diethylamino)benzyl)amino)-3-(pentan-3-yloxy)cyclohex-1-ene-1-carboxylic acid formation in presence of NADPH by LC/MS/MS analysis; type: ADME, microsome
in vitro [10] = settings: human, liver microsomes; remark: listed apart in the source
in vitro [11] = settings: human, liver microsomes; remark: listed apart in the source
Influenza A virus [12] = assay: microbe, parasite or virus in culture; settings: MDCK, 48 h
Neuraminidase [13] = target: T1, Neuraminidase; set-up: species or system A/Anhui/1/2013(H7N9)
Influenza A virus [14] = assay: microbe, parasite or virus in culture; settings: A/Puerto Rico/8/1934(H1N1), MDCK, 48 h
Neuraminidase [15] = target: T1, Neuraminidase
in vitro [16] = settings: dog, MDCK cells
Neuraminidase [17] = target: T1, Neuraminidase; assay: Inhibition of Influenza A virus (H1N1) neuraminidase activity
[18] = target: Neuraminidase (Influenza A virus (A/Memphis/1/1971(H3N2)), UniProt P03471); assay: Inhibition of Influenza A virus (H3N2) neuraminidase activity
Mus musculus [19] = assay: Acute toxicity in Kunming mouse assessed as change in body weight at 0.5 to 1 g/kg, ig; type: organism-based; settings: in vivo, po
[20] = human, plasma, 2 h, 100 µM
in vitro [21] = settings: human, plasma
in vitro [22] = settings: human, plasma; remark: listed apart in the source
in vitro [23] = settings: human, plasma; remark: listed apart in the source
Influenza A virus [24] = system: Influenza A virus
Mus musculus [25] = assay: Acute toxicity in Kunming mouse assessed as mortality at 0.5 to 1 g/kg, ig; type: organism-based; settings: in vivo, po
[26] = Drug level in human liver microsomes treated with Ethyl(3R,4R,5S)-4-acetamido-5-((4-(diethylamino)benzyl)-amino)-3-(pentan-3-yloxy)cyclohex-1-ene-1-carboxylate assessed as compound formation in presence of NADPH by LC/MS/MS analysis; type: ADME, microsome
in vitro [27] = settings: human, plasma; remark: listed apart in the source
[28] = target: Neuraminidase (Influenza A virus (A/Memphis/1/1971(H3N2)), UniProt P03471); assay: Inhibition of Influenza A virus Taiwan/3446/2002 (H3N2) neuraminidase activity using fluorogenic substrate MU-NANA pre-incubated for 30 mins before fluorogenic substrate addition and measured after 1 hr by spectrofluorometry
Neuraminidase [29] = target: T1, Neuraminidase; assay: Inhibition of Influenza A virus SN33 (H1N1) neuraminidase activity using fluorogenic substrate MU-NANA pre-incubated for 30 mins before fluorogenic substrate addition and measured after 1 hr by spectrofluorometry
in vitro [30] = settings: human, plasma; remark: listed apart in the source

T1 sequence (B4URF0 whole entry): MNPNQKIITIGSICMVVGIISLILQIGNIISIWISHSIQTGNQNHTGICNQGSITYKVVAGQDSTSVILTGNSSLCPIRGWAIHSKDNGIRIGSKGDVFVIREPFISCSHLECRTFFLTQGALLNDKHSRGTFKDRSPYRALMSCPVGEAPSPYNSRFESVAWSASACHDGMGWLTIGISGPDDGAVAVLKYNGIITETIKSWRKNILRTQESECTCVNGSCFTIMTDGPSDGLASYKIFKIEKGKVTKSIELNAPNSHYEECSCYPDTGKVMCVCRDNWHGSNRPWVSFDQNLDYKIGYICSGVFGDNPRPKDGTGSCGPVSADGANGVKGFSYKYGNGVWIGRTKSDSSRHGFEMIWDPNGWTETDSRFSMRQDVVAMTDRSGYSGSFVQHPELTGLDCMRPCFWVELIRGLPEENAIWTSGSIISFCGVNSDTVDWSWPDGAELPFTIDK
Sequence of Neuraminidase (Influenza A virus (A/Memphis/1/1971(H3N2)), UniProt P03471) (P03471 whole entry): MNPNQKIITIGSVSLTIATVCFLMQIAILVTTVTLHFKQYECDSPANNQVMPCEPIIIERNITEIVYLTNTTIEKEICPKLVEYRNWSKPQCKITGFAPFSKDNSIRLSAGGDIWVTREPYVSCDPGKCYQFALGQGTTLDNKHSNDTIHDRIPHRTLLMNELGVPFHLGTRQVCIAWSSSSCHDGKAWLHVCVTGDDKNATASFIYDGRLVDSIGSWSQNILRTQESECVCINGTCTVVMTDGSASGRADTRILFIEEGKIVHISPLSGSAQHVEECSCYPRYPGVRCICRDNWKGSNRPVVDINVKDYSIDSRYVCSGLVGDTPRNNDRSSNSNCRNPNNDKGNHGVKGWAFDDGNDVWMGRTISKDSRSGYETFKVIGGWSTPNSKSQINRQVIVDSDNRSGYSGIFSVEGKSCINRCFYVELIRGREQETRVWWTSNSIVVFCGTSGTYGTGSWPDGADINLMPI

SMILES	CC50 at 48 h (in vitro [3]) [nM]	IC50 (Neuraminidase [4]) [nM]	IC50 (Neuraminidase [5]) [nM]	EC50 (Influenza A virus [12]) [nM]	IC50 (Neuraminidase [13]) [nM]	EC50 (Influenza A virus [14]) [nM]	IC50 (Neuraminidase [15]) [nM]	CC50 at 48 h (in vitro [16]) [nM]	other results
CC(=O)N[C@H]1[C@H]([C@H](O)[C@H](O)CO)OC(C(=O)O)=C(C/C=C/c2ccc(C)cc2)[C@@H]1O	–	–	–	–	–	–	–	–	Ki (Neuraminidase [1]): 1700 nM; Ki [2]: 219000 nM
CCC(CC)O[C@@H]1C=C(C(=O)O)C[C@H](NCc2ccc(-c3cccs3)cc2)[C@H]1NC(C)=O	> 200000	21.3	354	–	–	–	–	–	–
CCOC(=O)C1=C[C@@H](OC(CC)CC)[C@H](NC(C)=O)[C@@H](NCc2ccc(N(CC)CC)cc2)C1	–	–	–	–	–	–	–	–	CLint scaled at 10 min (in vitro [6]): 149 mL/min/kg; remaining at 1 h (in vitro [7]): 87.1%; half-life at 10 min (in vitro [8]): 8.4 min; Drug metabolism [9]: Metabolite_Detected; microsomal CLint at 10 min (in vitro [10]): 165 µL/min/mg; remaining at 1 h (in vitro [11]): 0.6%
CCC(CC)O[C@@H]1C=C(C(=O)O)C[C@H](NCc2ccc(N3CCSCC3)cc2)[C@H]1NC(C)=O	> 200000	48.4	62.6	19000	156	4400	74.2	> 250000	–
CCC(CC)O[C@@H]1C=C(C(=O)O)[C@H](n2cc(C(O)CC)nn2)[C@H](N)[C@H]1NC(C)=O (stereo partly drawn)	–	–	–	–	–	–	–	–	Ki (Neuraminidase [17]): > 100 nM; Ki [18]: 20 nM
CCC(CC)O[C@@H]1C=C(C(=O)O)C[C@H](NCc2ccc(N(CC)CC)cc2)[C@H]1NC(C)=O	> 200000	0.55	1.05	1700	1.79	70	0.35	> 250000	Activity (Mus musculus [19]): Non-Toxic; Stability [20]: 120.7%; remaining at 1 h, 100 µM (in vitro [21]): 120%; remaining at 10 min, 100 µM (in vitro [22]): 118%; remaining at 0 min, 100 µM (in vitro [23]): 100%; CLint scaled at 10 min (in vitro [6]): < 8.6 mL/min/kg; remaining at 1 h (in vitro [7]): 95.4%; EC50 (Influenza A virus [24]): 610 nM; half-life at 10 min (in vitro [8]): > 145 min; Activity (Mus musculus [25]): Non-Toxic; Drug metabolism [26]: Metabolite_Detected; microsomal CLint at 10 min (in vitro [10]): < 9.6 µL/min/mg; remaining at 1 h (in vitro [11]): 82.7%; remaining at 0.5 h, 100 µM (in vitro [27]): 120%
CCC(CC)O[C@@H]1C=C(C(=O)O)C[C@H](NCc2ccc(N(CC)c3ccccc3)cc2)[C@H]1NC(C)=O	> 200000	698	474	–	2590	–	560	–	–
CCC(CC)O[C@@H]1C=C(C(=O)O)C[C@H](NCc2ccc(N(C)c3ccccc3)cc2)[C@H]1NC(C)=O	> 200000	29.8	5.65	25600	11.4	1950	2.29	> 250000	–
CCC(CC)O[C@@H]1C=C(C(=O)O)C[C@H](NCc2ccc(N3CCCCC3)cc2)[C@H]1NC(C)=O	> 200000	18.6	17.1	–	40.5	–	20.7	–	–
CCC(CC)O[C@@H]1C=C(C(=O)O)C[C@H](NCc2ccc(-n3cccn3)cc2)[C@H]1NC(C)=O	> 200000	297	869	–	9120	–	593	–	–
CCC(CC)O[C@@H]1C=C(C(=O)O)C[C@H](NCc2ccc(NC(C)=O)cc2)[C@H]1NC(C)=O	> 200000	–	–	–	–	–	–	–	–
CCC(CC)O[C@@H]1C=C(C(=O)O)[C@H](n2cc(C(O)CC)nn2)[C@H](NC(=N)N)[C@H]1NC(C)=O (stereo partly drawn)	–	–	–	–	–	–	–	–	Ki (Neuraminidase [17]): > 100 nM; Ki [18]: 4 nM
CC(=O)N[C@H]1[C@H]([C@@H](O)[C@@H](O)CO)OC(C(=O)O)=C[C@@H]1NC(=N)NC(=O)CSc1cccc2ccccc12	–	–	–	–	–	–	–	–	IC50 [28]: 25 nM; IC50 (Neuraminidase [29]): 21 nM
CCC(CC)O[C@@H]1C=C(C(=O)O)C[C@H](NCc2ccc(N(C)C)cc2)[C@H]1NC(C)=O	> 200000	4.09	4.11	–	8.41	–	5.74	–	–
CCC(CC)O[C@@H]1C=C(C(=O)O)C[C@H](NCc2ccc(-n3cccc3)cc2)[C@H]1NC(C)=O	> 200000	59.3	327	29000	1820	690	504	> 250000	–
CCC(CC)O[C@@H]1C=C(C(=O)O)C[C@H](NCc2ccc(Nc3ccccc3)cc2)[C@H]1NC(C)=O	> 200000	66.7	31.1	–	94.2	–	27.4	–	–
CCC(CC)O[C@@H]1C=C(C(=O)O)C[C@H](NCCCNc2cccc(Cl)c2C)[C@H]1NC(C)=O	–	–	–	–	–	–	–	–	IC50 (Neuraminidase [17]): 0.59 nM; IC50 [18]: 31 nM
CCC(CC)O[C@@H]1C=C(C(=O)O)C[C@H](NCc2ccc(N3CCCC3)cc2)[C@H]1NC(C)=O	> 200000	2.31	1.81	2350	6.51	220	2.13	> 250000	–
O=C(O)Cc1ccccc1Nc1c(Cl)cccc1Cl [DICLOFENAC]	–	–	–	–	–	–	–	–	CLint scaled at 10 min (in vitro [6]): 101 mL/min/kg; half-life at 10 min (in vitro [8]): 12.3 min; microsomal CLint at 10 min (in vitro [10]): 112 µL/min/mg
CCC(CC)O[C@@H]1C=C(C(=O)O)C[C@H](N)[C@H]1NC(C)=O [OSELTAMIVIR CARBOXYLATE]	> 200000	–	–	900	–	40	–	> 250000	–
CC(C)[N+](C)(CCOC(=O)C1c2ccccc2Oc2ccccc21)C(C)C [PROPANTHELINE BROMIDE]	–	–	–	–	–	–	–	–	remaining at 1 h, 100 µM (in vitro [21]): 16.8%; remaining at 10 min, 100 µM (in vitro [22]): 73.4%; remaining at 0 min, 100 µM (in vitro [23]): 100%; remaining at 2 h, 100 µM (in vitro [30]): 1.8%; remaining at 0.5 h, 100 µM (in vitro [27]): 44.6%
C[C@]12CC[C@H]3[C@@H](CCC4=CC(=O)CC[C@@]43C)[C@@H]1CC[C@@H]2O [TESTOSTERONE]	–	–	–	–	–	–	–	–	CLint scaled at 10 min (in vitro [6]): 46.9 mL/min/kg; half-life at 10 min (in vitro [8]): 26.6 min; microsomal CLint at 10 min (in vitro [10]): 52.1 µL/min/mg
CC(=O)N[C@H]1[C@H]([C@H](O)[C@H](O)CO)OC(C(=O)O)=C[C@@H]1NC(=N)N [ZANAMIVIR]	> 200000	–	–	270	–	50	–	> 250000	–
